Article PMC7413254 (Nature Communications, 2020)
Residue numbers refer to the chain shown, from its start.

Legend:
[1] = target: T1, PfCRT^7G8 in C6^7G8 parasites (Plasmodium falciparum, UniProt Q8IBZ9, A220S/C72S/I351M/I356L/K76T/N326D); test: P. falciparum H+-efflux assay (rate of DV alkalinisation after concanamycin A); assay type: cell-based; conditions: C67G8; for Effect on rate of DV alkalinisation / H+ leak (in words): test solute 10 μM
T1 construct: PfCRT also functions as a peptide transporter within its native environment of the DV membrane; expressed in transfected cells; host or cells: P. falciparum pfcrt transfectant line C6^7G8 (saponin-isolated trophozoites)
T1 sequence (Q8IBZ9 1-424 C72S/K76T/A220S/N326D/I351M/I356L): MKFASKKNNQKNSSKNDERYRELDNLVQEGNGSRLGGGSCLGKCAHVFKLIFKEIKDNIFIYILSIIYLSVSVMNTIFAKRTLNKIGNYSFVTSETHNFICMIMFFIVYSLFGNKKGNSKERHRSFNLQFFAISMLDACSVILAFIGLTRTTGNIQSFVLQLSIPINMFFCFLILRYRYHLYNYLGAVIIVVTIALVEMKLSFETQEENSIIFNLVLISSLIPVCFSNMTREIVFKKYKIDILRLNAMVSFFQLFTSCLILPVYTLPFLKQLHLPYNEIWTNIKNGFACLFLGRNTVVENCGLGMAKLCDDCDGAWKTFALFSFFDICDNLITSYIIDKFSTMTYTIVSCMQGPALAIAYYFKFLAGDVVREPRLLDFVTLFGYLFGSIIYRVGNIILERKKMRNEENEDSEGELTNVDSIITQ

[2] = target: T2, PfCRT^Dd2 in C4^Dd2 parasites (Plasmodium falciparum, UniProt Q8IBZ9, A220S/I356T/K76T/M74I/N326S/N75E/Q271E/R371I); test: as above; assay type: cell-based; conditions: C4Dd2; for Effect on rate of DV alkalinisation / H+ leak (in words): test solute 10 μM
T2 construct: PfCRT also functions as a peptide transporter within its native environment of the DV membrane; expressed in transfected cells; host or cells: P. falciparum pfcrt transfectant line C4^Dd2 (saponin-isolated trophozoites)
T2 sequence (Q8IBZ9 1-424 M74I/N75E/K76T/A220S/Q271E/N326S/I356T/R371I): T1 sequence (Q8IBZ9 1-424 C72S/K76T/A220S/N326D/I351M/I356L) with S72C, M74I, N75E, Q271E, D326S, M351I, L356T, R371I

non-expressing oocytes = test: [3H]VF-6 transport (efflux) from injected Xenopus oocytes; assay type: cell-based, Xenopus laevis; conditions: trans-inhibition, treatment 45 mM
Method: The characterisation of [^3H]VF-6 transport via 23 different field and laboratory-derived isoforms of PfCRT was undertaken with oocytes two days post-cRNA-injection (Figs. 3a–j, 4; Supplementary Fig. 2). The oocytes were injected with 25 nL of ND96 buffer (pH 5.5) supplemented with [^3H]VF-6 and unlabelled VF-6 to achieve estimated intracellular concentrations of 1.4 and 200 μM, respectively. Ten oocytes that had resealed at the injection site were transferred to a 5 mL polystyrene round bottom tube (In Vitro Technologies) and washed with 3.5 mL of ND96 buffer before being transferred to separate wells of a white 96-well plate (PerkinElmer). This treatment served to establish the amount of radioactivity within the oocytes immediately prior to the commencement of the transport assay. Another 10 resealed oocytes were transferred to a 5 mL tube and washed with 3.5 mL of ND96 buffer. The assay commenced with the addition of 100 μL of ND96 buffer and the oocytes were incubated at 27.5 °C for 1.5 h (unless specified otherwise; Fig. 3b). The assay was terminated by removing the reaction buffer with a pipette and washing the oocytes twice with 3.5 mL of ice-cold ND96 buffer. Each oocyte was transferred to a separate well of a white 96-well plate. The oocytes were lysed by the addition of 20 μL of 10% (w/v) SDS and overnight incubation at room temperature. The lysed oocyte was then combined with 150 μL of MicroScint-40 microscintillant (PerkinElmer), the plate covered with a TopSeal-A (PerkinElmer), and the radioactivity measured with a MicroBeta^2 microplate liquid scintillation analyser (PerkinElmer). VF-6 transport was calculated by subtracting the amount of radioactivity (measured in counts per minute) present within the oocytes at the end of the incubation from that measured in the oocytes sampled immediately before the commencement of the assay. The pH-dependence of transport (Fig. 3c) was determined by injecting the oocytes with [^3H]VF-6 suspended in 25 nL ND96 buffer adjusted to pH 5.0, 5.5, 6.0 or 7.0, which corresponded to the injection of 2.5–250 fmol of H^+. The dependence of [^3H]VF-6 transport on Na^+ or Cl^− was examined by injecting the oocytes with [^3H]VF-6 suspended in the control ND96 buffer (pH 5.5) or a version of this buffer that lacked either Na^+ or Cl^− (Supplementary Fig. 2). Na^+ was replaced with 96 mM of KCl and Cl^− was replaced with gluconate salts of Na^+ (NaC6H11O7; 96 mM), K^+ (KC6H11O7; 2 mM), Mg^2+ (MgC12H22O14; 1 mM) and Ca^2+ (CaC12H22O14; 1.8 mM). The dependence of peptide transport on Ca^2+ was determined by injecting the oocytes with [^3H]VF-6 suspended in ND96 buffers that contained different concentrations of Ca^2+ (0–5 mM; Supplementary Fig. 2). […] The dependence of PfCRT-mediated transport on the membrane potential was examined by using (1) Na^+ ionophore III in conjunction with the Na^+ gradients listed in Supplementary Data 7 and (2) Cl^− ionophore III in conjunction with the Cl^− gradients listed in Supplementary Data 7 to clamp the membrane potential of the oocyte from −80 to +80 mV. […] The kinetic parameters for VF-6 transport via different isoforms of PfCRT (Figs. 3e and 4a) were determined in SigmaPlot Windows Version 11.0 by a least-squares fit of the Michaelis–Menten equation to the data.
A subset of assays measured the ability of solutes known to interact with PfCRT to either cis-inhibit, trans-inhibit or trans-stimulate [^3H]VF-6 transport. These experiments involved adding these solutes to either the cis- or trans-side of the membrane relative to [^3H]VF-6. […] At least five independent experiments were performed (on different days and using oocytes from different frogs), and within each experiment measurements were made from ten oocytes per treatment.

Row | Compound | Effect on rate of DV alkalinisation / H+ leak (in words) [1] | Effect on rate of DV alkalinisation / H+ leak (in words) [2] | Maximum rate of peptide mimic-induced DV alkalinization ([1]; mean ± SEM, n = 5, SEM) | Maximum rate of peptide mimic-induced DV alkalinization ([2]; mean ± SEM, n = 5, SEM) | [3H]VF-6 transport, non-expressing oocytes (% PfCRT3D7 control) (non-expressing oocytes; Experiment 1) | [3H]VF-6 transport, non-expressing oocytes (% PfCRT3D7 control) (non-expressing oocytes; Experiment 2) | [3H]VF-6 transport, non-expressing oocytes (% PfCRT3D7 control) (non-expressing oocytes; Experiment 3) | [3H]VF-6 transport, non-expressing oocytes (% PfCRT3D7 control) (non-expressing oocytes; Experiment 4) | [3H]VF-6 transport, non-expressing oocytes (% PfCRT3D7 control) (non-expressing oocytes; Experiment 5)
1 | CCN(CC)CCCC(C)Nc1ccnc2cc(Cl)ccc12 (stereo not shown) [CQ, chloroquine, reference compound] | increase | increase | – | – | – | – | – | – | –
2 | N[C@@H](Cc1c[nH]cn1)C(=O)O [L-histidine] | without effect | without effect | – | – | – | – | – | – | –
3 | CC(C)(C)NC(=O)[C@@H]1C[C@@H]2CCCC[C@@H]2CN1C[C@@H](O)[C@H](Cc1ccccc1)NC(=O)[C@H](CC(N)=O)NC(=O)c1ccc2ccccc2n1 [Saquinavir, saquinavir, reference compound] | increased the rate of DV alkalinisation | increased the rate of DV alkalinisation | 0.022 ±0.004 fluorescence ratio/s | 0.011 ±0.003 fluorescence ratio/s | – | – | – | – | –
4 | DPVN [VF-6-derived peptide] | – | – | – | – | 3.68 % PfCRT3D7 control | 3.18 % PfCRT3D7 control | 3.95 % PfCRT3D7 control | 3.69 % PfCRT3D7 control | 3.36 % PfCRT3D7 control
5 | DPVNF [VF-6-derived peptide] | – | – | – | – | 3.25 % PfCRT3D7 control | 3.26 % PfCRT3D7 control | 3.78 % PfCRT3D7 control | 3.25 % PfCRT3D7 control | 3.35 % PfCRT3D7 control
6 | PVNF [VF-6-derived peptide] | – | – | – | – | 4.26 % PfCRT3D7 control | 4.58 % PfCRT3D7 control | 4.28 % PfCRT3D7 control | 4.2 % PfCRT3D7 control | 3.58 % PfCRT3D7 control
7 | VDPVN [VF-6-derived peptide] | – | – | – | – | 3.62 % PfCRT3D7 control | 3.95 % PfCRT3D7 control | 3.26 % PfCRT3D7 control | 3.58 % PfCRT3D7 control | 3.77 % PfCRT3D7 control
